Among the data in US20200362305A1, “EFFICIENT INFECTION OF PRIMARY KER[…] HPV16” (Board of Supervisors of Louisiana State University and …, priority 2018, published 2020) are infection efficiency values, retold here.

For the assay, the system named is HPV16. Put plainly: HPV16 infection of primary keratinocytes by ECM-to-cell transfer, cells grown with or without Y-27632. Conditions: primary cells grown in the presence or absence of the Rho kinase inhibitor Y-27632. The format is cell-based, human. How it is done: Human embryonic kidney 293TT and HeLa cells were obtained from John Schiller and Daniel DiMaio, respectively. They were cultured in DMEM supplemented with 10% FBS, non-essential amino acids, antibiotics, and L-Glutamax. Spontaneously immortalized human keratinocytes HaCaT cells were purchased from the American Type Culture Collection (ATCC) and grown in low glucose DMEM containing 5% FBS and antibiotics. Human foreskin keratinocytes (HFKs) were derived from neonatal human foreskin epithelia and maintained in E medium containing mouse epidermal growth factor (EGF) and mitomycin-treated mouse 3T3 J2 fibroblasts. Pooled primary epithelial keratinocytes were also purchased from the ATCC (PCS-200-010) and used in some experiments. In early experiments where indicated, the inventors maintained and infected primary keratinocytes in the presence of the Rho kinase inhibitor (ROCK) Y-27632, which was reported to increase their lifespan. However, the ROCK inhibitor was excluded prior and during experiments involving long term culturing of infected primary cells. Stable cell lines containing HPV16 episomes were created by co-transfection of pEGFP-N1-HPV16 containing the HPV16 genome (W12 strain) with an expression vector for Cre recombinase and a Neomycin resistance plasmid. […]

Turning to `C[C@@H](N)[C@H]1CC[C@H](C(=O)Nc2ccncc2)CC1` [Y-27632], the infection efficiency result is given as “no significant difference”.
